Patent US6996429B2, “Apparatus and method for detecting flinch response to nociceptive agents” (Regents of the Univeristy of California, San Diego, priority 2001, dated 2006)
“Also recorded” adds a separate entry of the source. Where two headings read alike, the source gives them in different places.

Tests used:
[1] = tested on: rat hind paw; details: for Cumulative flinching behavior (Mean ± SD) Phase I / Cumulative flinching behavior (Mean ± SD) Phase II / Cumulative flinching behavior (Mean ± SD) Phase IIA / Cumulative flinching behavior (Mean ± SD) Phase IIB: N 12
[2] = tested on: formalin induced flinching in the rat; assay: Effects of systemic and spinal drugs on formalin evoked flinching behavior (automated formalin test); assay type: in vivo
Method: To examine the effects of a drug on flinching behavior, rats received intraperitoneal or intrathecal injections of the drug. Intraperitoneal injections were delivered in volumes of 0.5 ml/kg.
Solutions were prepared fresh daily.
The percent inhibition is computed by dividing the response of each animal in a given group by the respective vehicle control group and multiplying by 100.
5. Test for intrathecal and intraperitoneal drugs on flinch behavior. […] Dose response curves of each agent were generated to relate drug effect to paw flinch and for comparison with previously reported data.

[3] = Formalin, 0.5% vs. Formalin, 2.5%
[4] = No Injection vs. Formalin, 2.5%

In the case of `C=O` [Formalin], the “flinching behavior versus formalin concentration” value ([1]; 0.5%/50 μL to 5.0%/50 μL, all phases, compared to saline, 1-way ANOVA p<0.002) is reported as “concentration-related increase in flinching behavior”, the “peak flinch rate Phase I” value ([1]; 100 male Sprague Dawly rats, Phase I) is reported as ~50 flinches/min and the “peak flinch rate Phase II” value ([1]; 100 male Sprague Dawly rats, Phase II) is reported as ~37 flinches/min. The “mean cumulative flinches (±SEM) Phase I” value ([1]; 100 male rats, Phase I (0–9 min)) was 203±9, the “mean cumulative flinches (±SEM) Phase II” value ([1]; 100 male rats, Phase II) was 1058±39 and the “mean cumulative flinches (±SEM) Phase IIA” value ([1]; 100 male rats, Phase IIA (10–40 min)) was 792±27. For the same compound, the “mean cumulative flinches (±SEM) Phase IIB” value ([1]; 100 male rats, Phase IIB (41–60 min)) was 266±16, the “Post hoc group comparison Phase I” value ([1]; Formalin, 0.5% vs. Formalin, 2.5%, Phase I) was “S (S = Significant difference between groups, p < 0.05, Tukey/Kramer post hoc test.)” and the “Post hoc group comparison Phase II” value ([1]; Formalin, 0.5% vs. Formalin, 2.5%, Phase II) was “S (S = Significant difference between groups, p < 0.05, Tukey/Kramer post hoc test.)”. The “Post hoc group comparison Phase IIA” value [1, 3] was “S (S = Significant difference between groups, p < 0.05, Tukey/Kramer post hoc test.)”, the “Post hoc group comparison Phase IIB” value [1, 3] was “S (S = Significant difference between groups, p < 0.05, Tukey/Kramer post hoc test.)” and the “Post hoc group comparison Phase I” value ([1]; Formalin, 0.5% vs. Formalin, 5.0%, Phase I) was “S (S = Significant difference between groups, p < 0.05, Tukey/Kramer post hoc test.)”. For the same compound, the “Post hoc group comparison Phase II” value ([1]; Formalin, 0.5% vs. Formalin, 5.0%, Phase II) was “S (S = Significant difference between groups, p < 0.05, Tukey/Kramer post hoc test.)”, the “Post hoc group comparison Phase IIA” value ([1]; Formalin, 0.5% vs. Formalin, 5.0%) was “S (S = Significant difference between groups, p < 0.05, Tukey/Kramer post hoc test.)” and the “Cumulative flinching behavior (Mean ± SD) Phase I” value ([1]; Formalin, 0.5%, Phase I) was 127 ± 66. The “Cumulative flinching behavior (Mean ± SD) Phase II” value ([1]; Formalin, 0.5%, Phase II) was 400 ± 185, the “Cumulative flinching behavior (Mean ± SD) Phase IIA” value ([1]; Formalin, 0.5%) was 301 ± 169 and the “Cumulative flinching behavior (Mean ± SD) Phase IIB” value ([1]; Formalin, 0.5%) was 100 ± 79. The “Post hoc group comparison Phase II” value ([1]; Formalin, 1.0% vs. Formalin, 2.5%, Phase II) was “S (S = Significant difference between groups, p < 0.05, Tukey/Kramer post hoc test.)”, the “Cumulative flinching behavior (Mean ± SD) Phase I” value ([1]; Formalin, 1.0%, Phase I) was 171 ± 55 and the “Cumulative flinching behavior (Mean ± SD) Phase II” value ([1]; Formalin, 1.0%, Phase II) was 613 ± 265. The “Cumulative flinching behavior (Mean ± SD) Phase IIA” value ([1]; Formalin, 1.0%) was 495 ± 211, the “Cumulative flinching behavior (Mean ± SD) Phase IIB” value ([1]; Formalin, 1.0%) was 118 ± 100 and the “Cumulative flinching behavior (Mean ± SD) Phase I” value ([1]; Formalin, 2.5%, Phase I) was 214 ± 75. For the same compound, the “Cumulative flinching behavior (Mean ± SD) Phase II” value ([1]; Formalin, 2.5%, Phase II) was 898 ± 266, the “Cumulative flinching behavior (Mean ± SD) Phase IIA” value ([1]; Formalin, 2.5%) was 662 ± 210 and the “Cumulative flinching behavior (Mean ± SD) Phase IIB” value ([1]; Formalin, 2.5%) was 236 ± 148. For the same compound, the “Cumulative flinching behavior (Mean ± SD) Phase I” value ([1]; Formalin, 5.0%, Phase I) was 230 ± 84, the “Cumulative flinching behavior (Mean ± SD) Phase II” value ([1]; Formalin, 5.0%, Phase II) was 811 ± 194 and the “Cumulative flinching behavior (Mean ± SD) Phase IIA” value ([1]; Formalin, 5.0%) was 659 ± 131. The “Cumulative flinching behavior (Mean ± SD) Phase IIB” value ([1]; Formalin, 5.0%) was 152 ± 88, the “Post hoc group comparison Phase II” value ([1]; No Injection vs. Formalin, 1.0%, Phase II) was “S (S = Significant difference between groups, p < 0.05, Tukey/Kramer post hoc test.)” and the “Post hoc group comparison Phase IIA” value ([1]; No Injection vs. Formalin, 1.0%) was “S (S = Significant difference between groups, p < 0.05, Tukey/Kramer post hoc test.)”. For the same compound, the “Post hoc group comparison Phase I” value ([1]; No Injection vs. Formalin, 2.5%, Phase I) was “S (S = Significant difference between groups, p < 0.05, Tukey/Kramer post hoc test.)”, the “Post hoc group comparison Phase II” value ([1]; No Injection vs. Formalin, 2.5%, Phase II) was “S (S = Significant difference between groups, p < 0.05, Tukey/Kramer post hoc test.)” and the “Post hoc group comparison Phase IIA” value [1, 4] was “S (S = Significant difference between groups, p < 0.05, Tukey/Kramer post hoc test.)”. The “Post hoc group comparison Phase IIB” value [1, 4] was “S (S = Significant difference between groups, p < 0.05, Tukey/Kramer post hoc test.)”, the “Post hoc group comparison Phase I” value ([1]; No Injection vs. Formalin, 5.0%, Phase I) was “S (S = Significant difference between groups, p < 0.05, Tukey/Kramer post hoc test.)” and the “Post hoc group comparison Phase II” value ([1]; No Injection vs. Formalin, 5.0%, Phase II) was “S (S = Significant difference between groups, p < 0.05, Tukey/Kramer post hoc test.)”. The “Post hoc group comparison Phase IIA” value ([1]; No Injection vs. Formalin, 5.0%) was “S (S = Significant difference between groups, p < 0.05, Tukey/Kramer post hoc test.)”, the “Post hoc group comparison Phase I” value ([1]; Saline vs. Formalin, 1.0%, Phase I) was “S (S = Significant difference between groups, p < 0.05, Tukey/Kramer post hoc test.)” and the “Post hoc group comparison Phase II” value ([1]; Saline vs. Formalin, 1.0%, Phase II) was “S (S = Significant difference between groups, p < 0.05, Tukey/Kramer post hoc test.)”. The “Post hoc group comparison Phase I” value ([1]; Saline vs. Formalin, 2.5%, Phase I) was “S (S = Significant difference between groups, p < 0.05, Tukey/Kramer post hoc test.)”, the “Post hoc group comparison Phase II” value ([1]; Saline vs. Formalin, 2.5%, Phase II) was “S (S = Significant difference between groups, p < 0.05, Tukey/Kramer post hoc test.)” and the “Post hoc group comparison Phase IIA” value ([1]; Saline vs. Formalin, 2.5%) was “S (S = Significant difference between groups, p < 0.05, Tukey/Kramer post hoc test.)”. The “Post hoc group comparison Phase IIB” value ([1]; Saline vs. Formalin, 2.5%) was “S (S = Significant difference between groups, p < 0.05, Tukey/Kramer post hoc test.)”, the “Post hoc group comparison Phase I” value ([1]; Saline vs. Formalin, 5.0%, Phase I) was “S (S = Significant difference between groups, p < 0.05, Tukey/Kramer post hoc test.)” and the “Post hoc group comparison Phase II” value ([1]; Saline vs. Formalin, 5.0%, Phase II) was “S (S = Significant difference between groups, p < 0.05, Tukey/Kramer post hoc test.)”. The “Post hoc group comparison Phase IIA” value ([1]; Saline vs. Formalin, 5.0%) was “S (S = Significant difference between groups, p < 0.05, Tukey/Kramer post hoc test.)” and the “formalin concentration at which the maximum (plateau) of flinching was observed” value ([1]; range 0.5 to 5%) was 2.5%.
In the case of `C[C@]12N[C@H](Cc3ccccc31)c1ccccc12` [MK801], the “ED50 Phase II (Mean and 95% confidence intervals)” value ([2]; IT (intrathecal), Phase II (10–60 min), from % MPE dose effect curves) is reported as 9.5 (87-1.0) μg, the “ED50 Phase IIA (Mean and 95% confidence intervals)” value ([2]; IT (intrathecal), Phase IIA (10–40 min), from % MPE dose effect curves) is reported as 7.3 (43-1.2) μg and the “effect on the flinching response” value ([2]; intrathecal injection) is reported as “potent dose dependent reduction in Phase II but not Phase I”. For the same compound, the “effect on the flinching response” value ([2]; systemic (intraperitoneal) injection) was “potent dose dependent reduction in Phase II but not Phase I” and the “flinching behavior at the lowest doses” value ([2]; systemic delivery, lowest doses) was “apparent increase in flinching behavior at the lowest doses”.
For `CN1CC[C@]23c4c5ccc(O)c4O[C@H]2[C@@H](O)C=C[C@H]3[C@H]1C5.O=S(=O)(O)O` [Morphine, morphine sulfate], the “effect on the flinching response” value ([2]; intrathecal injection, sulfate) was “potent dose dependent reduction of all phases of the flinching response; also recorded: dose-dependent reduction in all phases of the response to formalin” and the “effect on the flinching response” value ([2]; systemic (intraperitoneal) injection, sulfate) was “potent dose dependent reduction of all phases of the flinching response; also recorded: dose-dependent reduction in all phases of the response to formalin”.
